These results are taken from patent US7550469B2, “Heterocyclic amide derivatives and their use as dopamine D3 receptor ligands” (Aventis Pharmaceuticals Inc., priority 2001, dated 2009).

The target of one experiment is T1, cloned human dopamine D3 receptors (Homo sapiens, UniProt P35462).
T1 construct: expressed in transfected cells; membrane homogenate
T1 sequence (P35462 whole entry): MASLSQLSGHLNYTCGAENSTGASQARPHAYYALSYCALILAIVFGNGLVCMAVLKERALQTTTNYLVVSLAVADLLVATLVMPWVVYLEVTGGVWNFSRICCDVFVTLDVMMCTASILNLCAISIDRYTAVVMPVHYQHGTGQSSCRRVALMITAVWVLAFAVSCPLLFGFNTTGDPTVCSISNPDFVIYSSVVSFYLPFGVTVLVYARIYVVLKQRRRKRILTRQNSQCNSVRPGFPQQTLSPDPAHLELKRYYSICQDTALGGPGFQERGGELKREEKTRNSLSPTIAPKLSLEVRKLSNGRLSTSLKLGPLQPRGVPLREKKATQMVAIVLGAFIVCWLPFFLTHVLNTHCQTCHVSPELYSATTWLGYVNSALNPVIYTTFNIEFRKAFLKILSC
The experiment in a line: [N-Methyl-3H]Spiroperidol binding to cloned human dopamine D3 receptors (Protocol 1). The following applies: Table 2; read-out: D3K1. The method, boiled down: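 Membranes from CHO cells stably expressing cloned human D3 receptor were used for [N-methyl-3H]spiroperidol (60-90 Ci/mmol) binding. Assay buffer was 0.05 M Tris HCl pH 7.7 with 120 mM NaCl, 5 mM KCl, 2 mM CaCl2 and 1 mM MgCl2, optionally 0.1% ascorbic acid; total ligand concentration calculated from added CPM.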
Consider `COc1ccc(C(=O)NC(CO)CCCN2CCN(c3csc4cc(C(F)(F)F)ccc34)CC2)cc1OC` (stereo not drawn) [compound 815689], for which the Ki was determined as 225 nM. Still for that read-out and setting: as for `O=C(N[C@@H](CO)CCCN1CCN(c2csc3cc(C(F)(F)F)ccc23)CC1)c1cc2ccccc2[nH]1` [compound 815674], the figure is 314 nM; as for `O=C(Cc1cccs1)NCCCCN1CCN(c2c(-c3ccccc3)sc3cc(F)ccc23)CC1` [compound 815884], 296 nM; as for `O=C(NC(CO)CCCN1CCN(c2csc3cc(C(F)(F)F)ccc23)CC1)c1ccc2c(c1)S(=O)(=O)c1ccccc1C2=O` (stereo not drawn) [compound 815685], 186 nM. The same measure, in the same setting: as for `COc1ccccc1C(=O)NCCCN1CCCN(c2csc3cc(F)ccc23)CC1` [compound 827141], the figure is 99 nM; as for `O=C(NCC(CO)CCN1CCN(c2csc3cc(C(F)(F)F)ccc23)CC1)c1cn[nH]c1` (stereo not drawn) [818928ES], 158 nM; as for `O=C(NCC(CO)CCN1CCN(c2csc3cc(C(F)(F)F)ccc23)CC1)c1ccc2ccccc2c1` (stereo not drawn) [818929ES], 201 nM. The same measure, in the same setting: as for `Cc1ccc(C(=O)N[C@H](CO)CCCN2CCN(c3csc4cc(C(F)(F)F)ccc34)CC2)cc1` [compound 815695], the figure is 198 nM; as for `O=C(NCC(CO)CCN1CCN(c2csc3cc(C(F)(F)F)ccc23)CC1)c1ccncc1` (stereo not drawn) [818940ES], 307 nM; as for `O=C(NCCCCN1CCCN(c2csc3cc(F)ccc23)CC1)c1cc2c(Cl)cc(Cl)cc2o1` [compound 827124], 16.6 nM.

The experiment is the same for the next values; noted with them: read-out: D3K1.
With `COc1ccc(C(=O)NC(CO)CCCN2CCN(c3csc4cc(C(F)(F)F)ccc34)CC2)cc1OC` (stereo not drawn) [compound 815689], the Ki was 225 nM. Turning to `O=C(COc1ccccc1)NC/C=C/CN1CCN(c2csc3cc(C(F)(F)F)ccc23)CC1` [compound 827725], the Ki was 120 nM.

Turning to `O=C(NCCCCN1CCN(c2c(Cl)sc3cc(C(F)(F)F)ccc23)CC1)c1c(F)cccc1F` [compound 815577], the Ki was 95 nM. Regarding `O=C(N[C@@H](CO)CCCN1CCN(c2csc3cc(C(F)(F)F)ccc23)CC1)c1cc2ccccc2[nH]1` [compound 815674], the Ki turned out to be 314 nM. The same measure, in the same setting: in the case of `O=C(NC(CO)CCCN1CCN(c2csc3cc(C(F)(F)F)ccc23)CC1)c1ccc2c(c1)S(=O)(=O)c1ccccc1C2=O` (stereo not drawn) [compound 815685] it was 186 nM. On the same count and under the same terms, in the case of `O=C(NCCCCN1CCN(c2c(Cl)sc3cc(C(F)(F)F)ccc23)CC1)C1CCCC1` [compound 815579] it was 104 nM. With `O=C(NC/C=C/CN1CCN(c2csc3cc(C(F)(F)F)ccc23)CC1)c1ccccc1` [compound 827715], the Ki was 24 nM. Same read-out and setting: in the case of `O=C(NC/C=C\CN1CCN(c2csc3cc(C(F)(F)F)ccc23)CC1)c1ccccn1` [compound 826335] it was 42 nM; in that of `O=C(NC/C=C\CN1CCN(c2csc3cc(C(F)(F)F)ccc23)CC1)C1CCCCC1` [compound 826339], 24 nM. Same read-out and setting: in the case of `COc1ccc(C(=O)NCCCCN2CCN(c3c(Cl)sc4cc(C(F)(F)F)ccc34)CC2)cc1OC` [compound 815570] it was 30 nM; in that of `Cc1ccc(C(=O)N[C@H](CO)CCCN2CCN(c3csc4cc(C(F)(F)F)ccc34)CC2)cc1` [compound 815695], 198 nM; in that of `O=C(NCCCCN1CCN(c2c(Cl)sc3cc(F)ccc23)CC1)c1ccc2c(c1)OCO2` [compound 815055], 3.5 nM.

Staying with this experiment, now noted: the 13th table, unit inferred; read-out: D3Ki.
For the compound `COc1cccc(C(=O)NCCCCN2CCCN(c3csc4cc(F)ccc34)CC2)c1` [compound 822197], the Ki amounted to 6.5 nM. The same measure, in the same setting: in the case of `CSc1nsc(SC)c1C(=O)NCCCCN1CCCN(c2csc3cc(F)ccc23)CC1` [S981838] it was 6 nM; in that of `COc1ccc(C(=O)NCCCCCN2CCC(c3noc4ccsc34)CC2)cc1OC` [compound 816215], 272 nM.

In the case of `O=C(NCCCCN1CCCN(c2csc3cc(C(F)(F)F)ccc23)CC1)c1cccnc1Cl` [S980646], the Ki came out at 110 nM. The same measure, in the same setting: in the case of `O=C(NCCCCN1CCCN(c2csc3cc(C(F)(F)F)ccc23)CC1)c1ccc2[nH]ccc2c1` [S980651] it was 54 nM. Same read-out and setting: in the case of `O=C(NCCCCN1CCCN(c2csc3cc(F)ccc23)CC1)c1cccc(C(F)(F)F)c1` [compound 822155] it was 10.8 nM; in that of `O=C(NCCCCCN1CCCN(c2csc3cc(F)ccc23)CC1)c1cccc2ccccc12` [S984489], 41.5 nM; in that of `CC1=C(C(=O)NCCCCN2CCCN(c3csc4cc(F)ccc34)CC2)Cc2ccccc21` [S977827], 0.987 nM.

As to `O=C(NCCCCN1CCCN(c2csc3cc(C(F)(F)F)ccc23)CC1)c1cc2ccccc2s1` [S980636], the Ki came out at 18 nM. On the same count and under the same terms, as for `O=C(NCCCCN1CCCN(c2csc3cc(F)ccc23)CC1)c1cccnc1Cl` [compound 822201], the figure is 15 nM; as for `O=C(NCCCCN1CCCN(c2csc3cc(F)ccc23)CC1)c1cccnc1Oc1ccccc1` [S981834], 1.1 nM; as for `O=C(NCCCCCN1CCCN(c2csc3cc(F)ccc23)CC1)c1cccc2cc[nH]c12` [S984495], 26.2 nM. In the case of `Cc1oc(-c2ccc(Cl)cc2)cc1C(=O)NCCCCN1CCCN(c2csc3cc(F)ccc23)CC1` [S981840], the Ki was found to be 3.4 nM.

Staying with this experiment, now noted: the 14th table; read-out: D3 Ki.
Turning to `COc1ccc(C(=O)NC(CO)CCCN2CCN(c3csc4cc(C(F)(F)F)ccc34)CC2)cc1OC` (stereo not drawn) [compound 815689], the Ki came to 225 nM. `COc1ccc2[nH]c(C(=O)NCCCCCN3CCN(c4csc5cc(F)ccc45)CC3)cc2c1` [compound 826785]: the Ki is 1.43 nM. Still for that read-out and setting: as for `O=C(N[C@@H](CO)CCCN1CCN(c2csc3cc(C(F)(F)F)ccc23)CC1)c1cc2ccccc2[nH]1` [compound 815674], the figure is 314 nM. As to `Cn1c(C(=O)NCCCCCN2CCN(c3csc4cc(F)ccc34)CC2)cc2ccccc21` [compound 826786], the Ki came to 1.09 nM. The same measure, in the same setting: in the case of `O=C(NC(CO)CCCN1CCN(c2csc3cc(C(F)(F)F)ccc23)CC1)c1ccc2c(c1)S(=O)(=O)c1ccccc1C2=O` (stereo not drawn) [compound 815685] it was 186 nM; in that of `Cc1ccc(C(=O)N[C@H](CO)CCCN2CCN(c3csc4cc(C(F)(F)F)ccc34)CC2)cc1` [compound 815695], 198 nM; in that of `O=C(NCCCCCN1CCN(c2csc3cc(F)ccc23)CC1)c1cccc(F)c1` [compound 826782], 4.55 nM.

Still in this experiment, the particulars now being: the 15th table; read-out: D3 Ki.
Regarding `COc1ccccc1C(=O)NCCCCN1C2CCC1CC(c1noc3cc(F)ccc13)C2` (stereo not drawn) [compound 816343], the Ki is 344 nM.

The experiment is the same for the next values; noted with them: the 16th table; read-out: D3 Ki.
With `COc1ccccc1C(=O)NCCCN1CCCN(c2csc3cc(F)ccc23)CC1` [compound 827141], the Ki is 99 nM. Still for that read-out and setting: as for `O=C(NCCCCN1CCCN(c2csc3cc(F)ccc23)CC1)c1cc2c(Cl)cc(Cl)cc2o1` [compound 827124], the figure is 16.6 nM.

The experiment is the same for the next values; noted with them: the 17th table; read-out: D3 Ki.
Take `Cc1ccc(C(=O)NCC2CC2CN2CCCN(c3csc4cc(F)ccc34)CC2)cc1` (racemic) [compound 830403]: the Ki is 59.9 nM. Still for that read-out and setting: in the case of `O=C(Cc1ccccc1)NC[C@@H]1CC1CN1CCCN(c2csc3cc(F)ccc23)CC1` (stereo partly drawn) [compound 831203] it was 3.21 nM.

The same experiment, now with this note: the 18th table; read-out: D3 Ki.
With `O=C(NCc1sccc1CN1CCN(c2csc3cc(F)ccc23)CC1)c1ccc2[nH]ccc2c1` [compound 826327], the Ki was found to be 20 nM. Turning to `O=C(NCc1sccc1CN1CCN(c2csc3cc(F)ccc23)CC1)c1cccc(F)c1` [compound 826303], the Ki came out at 64 nM. The same measure, in the same setting: in the case of `O=C(NCc1sccc1CN1CCN(c2csc3cc(F)ccc23)CC1)c1cccc2ccccc12` [compound 826299] it was 95 nM. Same read-out and setting: as for `COc1ccc(C(=O)NCc2sccc2CN2CCN(c3csc4cc(F)ccc34)CC2)cc1OC` [compound 826305], the figure is 30 nM; as for `O=C(NCc1sccc1CN1CCN(c2csc3cc(F)ccc23)CC1)c1cc2ccccc2s1` [818321G], 78.7 nM. With `O=C(NCc1sccc1CN1CCN(c2csc3cc(F)ccc23)CC1)c1ccc(OC(F)(F)F)cc1` [compound 826298], the Ki came to 59 nM. On the same count and under the same terms, as for `O=C(NCc1sccc1CN1CCN(c2csc3cc(F)ccc23)CC1)c1ccc2cc[nH]c2c1` [compound 826328], the figure is 28 nM.

The same experiment, now with this note: the 19th table; read-out: D3 Ki.
Take `Cc1ccccc1C(=O)Nc1ccc(CN2CCN(c3csc4cc(F)ccc34)CC2)cc1` [compound 822212]: the Ki came to 162 nM.

Staying with this experiment, now noted: the 21st table; read-out: D3 Ki.
Consider `COc1cccc(C(=O)NCCCCN2[C@H](C)CN(c3csc4cc(C(F)(F)F)ccc34)C[C@@H]2C)c1` [compound 826932], for which the Ki turned out to be 384 nM. Same read-out and setting: in the case of `C[C@@H]1CN(c2csc3cc(C(F)(F)F)ccc23)C[C@H](C)N1CCCCNC(=O)c1cnc2ccccc2n1` [compound 826935] it was 268 nM. The same measure, in the same setting: as for `COc1cc(OC)cc(C(=O)NCCCCN2[C@H](C)CN(c3csc4cc(C(F)(F)F)ccc34)C[C@@H]2C)c1` [compound 827039], the figure is 378 nM; as for `C[C@@H]1CN(c2csc3cc(C(F)(F)F)ccc23)C[C@H](C)N1CCCCNC(=O)c1cccc2[nH]ccc12` [compound 826953], 222 nM. On the same count and under the same terms, as for `C[C@@H]1CN(c2csc3cc(C(F)(F)F)ccc23)C[C@H](C)N1CCCCNC(=O)c1cccs1` [compound 827037], the figure is 106 nM; as for `C[C@@H]1CN(c2csc3cc(F)ccc23)C[C@H](C)N1CCCCNC(=O)c1cccc2[nH]ccc12` [compound 826963], 72.9 nM. For `CC1=C(C(=O)NCCCCN2[C@H](C)CN(c3csc4cc(F)ccc34)C[C@@H]2C)Cc2ccccc21` [compound 827255], the Ki was 53.7 nM. For `C[C@@H]1CN(c2csc3cc(C(F)(F)F)ccc23)C[C@H](C)N1CCCCNC(=O)c1cccc(C(F)(F)F)c1` [compound 827043], the Ki turned out to be 322 nM.

Still in this experiment, the particulars now being: the 22nd table; read-out: D3 Ki.
As for `COc1ccccc1C(=O)NCCCCN1CCN(c2nn(C(=O)c3ccccc3OC)c3ccsc23)CC1` [compound 825145], the Ki was 174 nM. The same measure, in the same setting: as for `N#Cc1ccc(C(=O)NCCCCN2CCN(c3noc4ccsc34)CC2)cc1` [compound 829686], the figure is 42.1 nM.

With `Cc1ccccc1C(=O)NCCCCN1CCN(c2n[nH]c3ccsc23)CC1` [compound 825161], the Ki was found to be 244 nM.

Still in this experiment, the particulars now being: the 23rd table; read-out: D3 Ki.
For the compound `FC(F)(F)c1cccc2c(C3CCN(C[C@@H]4C[C@H]4CNCC45CC6CC(CC(C6)C4)C5)CC3)noc12` [compound 832783], the Ki stood at 47.6 nM. On the same count and under the same terms, in the case of `FC(F)(F)c1ccc2c(N3CCN(C[C@@H]4C[C@H]4CNCCc4cccnc4)CC3)csc2c1` [compound 832281] it was 5.59 nM; in that of `FC(F)(F)c1ccc2c(N3CCN(C[C@@H]4C[C@H]4CNC4CCN(CC5CC5)CC4)CC3)csc2c1` [compound 832387], 36.5 nM. As for `FC(F)(F)Oc1cccc(CNCC2CC2CN2CCN(c3csc4cc(C(F)(F)F)ccc34)CC2)c1` (racemic) [compound 832181], the Ki came out at 16 nM.

As to `CC[C@H]1CC[C@H](NC[C@@H]2C[C@H]2CN2CCN(c3c(Cl)sc4cc(C(F)(F)F)ccc34)CC2)CC1` [compound 832329], the Ki came out at 151 nM.

The experiment is the same for the next values; noted with them: the 24th table; read-out: D3 Ki.
For `COc1ccc(S(=O)(=O)NCC2CC2CN2CCC(c3noc4ccsc34)CC2)cc1` (stereo not drawn) [compound 831464], the Ki is 43.3 nM.
